These results are taken from patent US8932590B2, “Method of adsorbing transforming growth factor β” (TORAY Industries, Inc., priority 2002, dated 2015).

Test [1] relates to tumor. Nature of the test: Visual observation of tumor metastasis. It is filed as in vivo, rat. To be noted: rats dissected 35 days after the extracorporeal perfusion, region other than beneath the back skin. An excerpt:
The test procedures of Examples 10 to 15 and Comparative Examples 11 to 22 were repeated, except for using three other rats (Examples 16 to 18, and Comparative Examples 21 to 26). The metastasis of the tumor to a region other than beneath the back skin to which the tumor was inoculated was visually observed (Table 6). The rats were dissected 35 days after the extracorporeal perfusion, and the tumor was observed. As a result, the metastasis was hardly observed in cases in which the extracorporeal perfusion treatment was carried out two days into the administration of gemcitabine hydrochloride.

Test [2] deals with tumor. Nature of the test: Combined treatment of anticancer agent and extracorporeal perfusion: tumor volume. The settings on record: anticancer agent administered, no extracorporeal perfusion. It is filed as in vivo, rat. As to the method:
The dimensions of the tumor region of a rat were measured using micrometer calipers. The longest diameter of the tumor was defined as the major axis, and a diameter of the tumor passing through the midpoint of the major axis in a direction perpendicular to the major axis was defined as the minor axis. The tumor volume was defined according to the following equation: Tumor Volume=(Major Axis)×(Minor Axis)×(Minor Axis)×0.5[Adsorbent for TGF β and Immunosuppressive Acidic Protein] […]
One week after the inoculation of cancer cells (rat body weight: 400 to 430 g), 0.6 mg of gemcitabine hydrochloride was injected in the vicinity of the tumor. The gemcitabine hydrochloride used herein was prepared by dissolving an injection preparation thereof (available from Eli Lilly Japan K.K.) in physiological saline to yield a 20 mg/mL solution. […]
Six rats were treated, and the tumor volumes after the inoculation of cancer cells were determined. The results in Comparative Examples 15 to 20, in which the anticancer agent was administered but the extracorporeal perfusion treatment was not carried out, are shown in Table 5.

Structures can show the parent of a compound that is named as a salt. A value given as a limit tells only on which side of the number the result lay.

As for `Nc1ccn([C@@H]2O[C@H](CO)[C@@H](O)C2(F)F)c(=O)n1` [Comparative Example 15, gemcitabine hydrochloride], the “Metastasis (visual observation)” value in test [1] (listed as Com. Ex. 25, hydrochloride) is listed as “dermic micrometastasis (2 mm”; in test [1] (listed as Com. Ex. 26, hydrochloride), “dermic micrometastasis (2 mm”. Besides, the Tumor volume is given as below 0.06 mL in test [2] (14 days after inoculation of cancer cells); 4.3 mL in test [2] (21 days after inoculation of cancer cells, hydrochloride); 7.9 mL in test [2] (21 days after inoculation of cancer cells, listed as Comparative Example 16, hydrochloride); 6.6 mL in test [2] (21 days after inoculation of cancer cells, listed as Comparative Example 17, hydrochloride); 7.4 mL in test [2] (21 days after inoculation of cancer cells, listed as Comparative Example 18, hydrochloride); 7.0 mL in test [2] (21 days after inoculation of cancer cells, listed as Comparative Example 19, hydrochloride). For the same molecule, the Tumor volume came out at 4.5 mL in test [2] (21 days after inoculation of cancer cells, listed as Comparative Example 20, hydrochloride); 26 mL in test [2] (28 days after inoculation of cancer cells, hydrochloride); 41 mL in test [2] (28 days after inoculation of cancer cells, listed as Comparative Example 16, hydrochloride); 24 mL in test [2] (28 days after inoculation of cancer cells, listed as Comparative Example 17, hydrochloride); 35 mL in test [2] (28 days after inoculation of cancer cells, listed as Comparative Example 18, hydrochloride); 30 mL in test [2] (28 days after inoculation of cancer cells, listed as Comparative Example 19, hydrochloride). The Tumor volume in test [2] (28 days after inoculation of cancer cells, listed as Comparative Example 20, hydrochloride) amounted to 25 mL; in test [2] (35 days after inoculation of cancer cells, hydrochloride) it was 41 mL; in test [2] (35 days after inoculation of cancer cells, listed as Comparative Example 16, hydrochloride), 59 mL; in test [2] (35 days after inoculation of cancer cells, listed as Comparative Example 17, hydrochloride), 38 mL; in test [2] (35 days after inoculation of cancer cells, listed as Comparative Example 18, hydrochloride) it was 54 mL; in test [2] (35 days after inoculation of cancer cells, listed as Comparative Example 19, hydrochloride), 47 mL. Further, the Tumor volume in test [2] (35 days after inoculation of cancer cells, listed as Comparative Example 20, hydrochloride) stood at 37 mL.
